The target in assay [1] is T1, IFN-γ-induced IDO enzyme in HeLa cells (Homo sapiens, UniProt P14902).
T1 construct: HeLa cells are human cervical cancer cell lines and can up-regulate the expression of endogenous IDO enzymes; endogenous in cells; host or cells: HeLa cells stimulated with human IFN-γ
Description: Detection of IDO inhibitory activity at the cellular level (IFN-γ-induced HeLa cells). The note with it: 48 hours; for inhibition at 1 µM: tested compound 1 μM, human IFN-γ 50 ng/ml, read-out: IDO Inhibitory Rate (%) (1 μM). Type of assay: cell-based. The text has this:
In the present disclosure, IFN-γ-induced IDO enzyme expression in HeLa cells were used as a model to detect the IDO enzymatic inhibitory activity of the compound at the cellular level. HeLa cells are human cervical cancer cell lines and can up-regulate the expression of endogenous IDO enzymes under the induction of human IFN-γ. The cell supernatant can be subjected to detection of the enzyme-catalyzed product kynurenine by adding the substrate L-tryptophan to the cell culture solution. […] Recombinant human IFN-γ cytokine purchased from Sangon Biotech, Phenol red-free DMEM for cell culture purchased from Gibco. […] The cells were further cultured for 48 hours and detected. (2) 200 μl of the supernatant from the culture well was pipetted, 40 μl of a pre-formulated 30% (w/v) trichloroacetic acid solution was added, allowed to react at 65° C. for 20 minutes, and then centrifuged at 12,000 rpm for 15 minutes. (3) 100 μl of the supernatant after centrifugation was pipetted and added into a 96-well plate, an equal volume of 2% p-dimethylaminobenzaldehyde in glacial acetic acid was added, and they were mixed well and allowed to stand at room temperature for 10 minutes. (4) A microplate reader (ELX800NB) was used to detect the color signal of each well, and the detection wavelength was 492 nm.

For assay [2], the target named is T2, Recombinant human IDO enzyme (IDO1 enzyme) (Homo sapiens, UniProt P14902).
T2 construct: purchased BPS Bioscience, USA
Kind of assay: In vitro IDO enzymatic activity assay (kynurenine colour reaction, 492 nm). Type of assay: biochemical. The conditions noted are these: for inhibition at 0.2 µM: tested compound concentration 200 nM, recombinant human IDO1, read-out: IDO Enzymatic Inhibition Rate (%) (200 nM). The method, then: The basic principle of the in vitro IDO enzymatic activity detection is to use the IDO enzyme to metabolize the substrate L-tryptophan to produce the product kynurenine in an in vitro enzyme-catalyzed reaction system. The kynurenine is yellow in color reaction with p-dimethylaminobenzaldehyde in glacial acetic acid, and the absorbance value was measured at 492 nm on a microplate reader. The concentration of the product kynurenine in the sample is calculated by comparison to a standard curve of kynurenine with a known concentration.
Recombinant human IDO enzyme (IDO1 enzyme) was purchased from BPS Bioscience, USA.
(3) Control reactions were set up at the same time the detection reaction was carried out. including 0 inhibition positive control with no tested compound added and 0 enzyme negative control with no enzyme added. All tests were run in duplicate.
(4) After the enzymatic reaction was completed, 40 μl of a pre-formulated 30% (w/v) trichloroacetic acid solution was added, and reacted at 65° C. for 20 minutes, followed by centrifugation at 12,000 rpm for 15 minutes.
(5) 100 μl of the supernatant after centrifugation was pipetted and added to a 96-well plate. An equal volume of 2% p-dimethylaminobenzaldehyde in glacial acetic acid was added, well mixed, and allowed to stand at room temperature for 10 minutes.
(6) A microplate reader (ELX800NB) was used to detect the color signal of each well with a detection wavelength of 492 nm.
In addition, the enzymatic inhibition rates were calculated for the tested compounds of different concentration gradients, and then the enzymatic half maximal inhibitory concentration (IC50) was calculated using the IC50 calculator.
According to the above-mentioned method of experiment, the compound of the present disclosure was subjected to an in vitro IDO enzymatic IC50 assay using NLG919 as a positive control compound.

T1 sequence (P14902 whole entry): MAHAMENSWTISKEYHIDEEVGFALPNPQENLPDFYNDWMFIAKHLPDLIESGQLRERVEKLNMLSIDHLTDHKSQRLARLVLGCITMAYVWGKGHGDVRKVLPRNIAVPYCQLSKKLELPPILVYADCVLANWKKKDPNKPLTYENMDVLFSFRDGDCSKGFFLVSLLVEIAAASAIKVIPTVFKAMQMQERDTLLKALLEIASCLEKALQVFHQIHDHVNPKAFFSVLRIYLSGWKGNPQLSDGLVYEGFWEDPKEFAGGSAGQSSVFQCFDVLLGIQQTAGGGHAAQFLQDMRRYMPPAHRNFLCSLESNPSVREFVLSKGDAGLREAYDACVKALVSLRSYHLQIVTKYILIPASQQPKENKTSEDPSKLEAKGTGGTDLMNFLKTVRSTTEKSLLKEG
T2 sequence (P14902 whole entry): as above

In the case of `CN(CC(=O)N1CCC(C(O)CC2c3ccccc3-c3cncn32)CC1)c1ccc2c(c1)oc1ccccc12` (centres unmarked) [Example 124, 2-(dibenzo[b,d]furan-3-yl(methyl)amino)-1-(4-(1-hydroxy-2(5H-imidazo[5,1-a]isoindol-5-yl)ethyl)piperidin-1-yl)ethyl-1-one], in assay [1], the inhibition at 1 µM came to 79%. With `CN(CC(=O)N1CCC(C(O)CC2c3ccccc3-c3cncn32)CC1)c1ccc(F)cc1` (centres unmarked) [Example 72, 2-((4-fluorophenyl)(methyl)amino)-1-(4-(1-hydroxy-2-(5H-imidazo[5,1-a]isoindol-5-yl)ethyl)piperidin-1-yl)ethyl-1-one], the inhibition at 0.2 µM in assay [2] came out at 73%. The inhibition at 1 µM in assay [1] was 91%. For the compound `CN(CC(=O)N1CCC(C(O)CC2c3ccccc3-c3cncn32)CC1)c1ccc2ncccc2c1` (centres unmarked) [Example 113, 1-(4-(1-hydroxy-2-(5H-imidazo[5,1-a]isoindol-5-yl)ethyl)piperidin-1-yl)-2-(methyl(quinolin-6-yl)amino)ethyl-1-one], the inhibition at 0.2 µM in assay [2] worked out at 75%. Besides, the inhibition at 1 µM in assay [1] turned out to be 74%.

With `Cc1ccc(N(C)CC(=O)N2CCC(C(O)CC3c4ccccc4-c4cncn43)CC2)cc1C` (centres unmarked) [Example 77, 2-((3,4-dimethylphenyl)(methyl)amino)-1-(4-(1-hydroxy-2-(5H-imidazo[5,1-a]isoindol-5-yl)ethyl)piperidin-1-yl)ethyl-1-one], the inhibition at 0.2 µM in assay [2] stood at 82%. Moreover, in assay [1], the inhibition at 1 µM came out at 95%.

As for `O=C(COc1nc2ccccc2o1)N1CCC(C(O)CC2c3ccccc3-c3cncn32)CC1` (centres unmarked) [Example 37, 2-(benzo[d]oxazolin-2-yloxy)-1-(4-(1-hydroxy-2-(5H-imidazo[5,1-a]isoindol-5-yl)ethyl)piperidin-1-yl)ethyl-1-one], the inhibition at 0.2 µM in assay [2] came to 83%. The inhibition at 1 µM in assay [1] is 97%.

In the case of `O=C(COc1ccc2oc3ccccc3c2c1)N1CCC(C(O)CC2c3ccccc3-c3cncn32)CC1` (centres unmarked) [Example 57, 2-(dibenzo[b,d]furan-2-yloxy)-1-(4-(1-hydroxy-2-(5H-imidazo[5,1-a]isoindol-5-yl)ethyl)piperidin-1-yl)ethyl-1-one], the inhibition at 0.2 µM in assay [2] stood at 88%. Moreover, in assay [1], the inhibition at 1 µM was found to be 91%. With `O=C(COc1cccc(C(F)(F)F)c1)N1CCC(C(O)CC2c3ccccc3-c3cncn32)CC1` (centres unmarked) [Example 48, 2-(3-trifluoromethylphenoxy)-1-(4-(1-hydroxy-2-(5H-imidazo[5,1-a]isoindol-5-yl)ethyl)piperidin-1-yl)ethyl-1-one], the inhibition at 0.2 µM in assay [2] was 89%. In addition, the inhibition at 1 µM in assay [1] stood at 99%. For the compound `O=C(CNc1ccccc1)N1CCC(C(O)CC2c3ccccc3-c3cncn32)CC1` (centres unmarked) [Example 85, 1-(4-(1-hydroxy-2-(5H-imidazo[5,1-a]isoindol-5-yl)ethyl)piperidin-1-yl)-2-(phenylamino)ethyl-1-one], in assay [2] (recombinant human IDO enzyme), the IC50 was 144 nM. The inhibition at 0.2 µM in assay [2] turned out to be 65%. In assay [1] (human IFN-γ induced, read-out: IDO EC50 (nM) at the Cellular Level (column head: IC50 (nM))), the EC50 turned out to be 312 nM. Besides, the inhibition at 1 µM in assay [1] worked out at 84%.

For `O=C(COc1ccc2[nH]c3ccccc3c2c1)N1CCC(C(O)CC2c3ccccc3-c3cncn32)CC1` (centres unmarked) [Example 17, 2-((9H-carbazol-3-yl)oxy)-1-(4-(1-hydroxy-2-(5H-imidazo[5,1-a]isoindol-5-yl)ethyl)piperidin-1-yl)ethyl-1-one], the inhibition at 0.2 µM in assay [2] was found to be 85%. The inhibition at 1 µM in assay [1] stood at 93%. As for `O=C(COc1cccc(Cl)c1)N1CCC(C(O)CC2c3ccccc3-c3cncn32)CC1` (centres unmarked) [Example 41, 2-(3-chlorophenoxy)-1-(4-(1-hydroxy-2-(5H-imidazo[5,1-a]isoindol-5-yl)ethyl)piperidin-1-yl)ethyl-1-one], the inhibition at 0.2 µM in assay [2] stood at 92%. In assay [1], the inhibition at 1 µM amounted to 99%. Take `O=C(COc1ccc2[nH]ccc2c1)N1CCC(C(O)CC2c3ccccc3-c3cncn32)CC1` (centres unmarked) [Example 26, 2-((1H-indol-5-yl)oxy)-1-(4-(1-hydroxy-2-(5H-imidazo[5,1-a]isoindol-5-yl)ethyl)piperidin-1-yl)-ethyl-1-one]: the inhibition at 0.2 µM in assay [2] was 89%. In addition, the inhibition at 1 µM in assay [1] was found to be 92%. In the same order, the values of `CN(CC(=O)N1CCC(C(O)CC2c3ccccc3-c3cncn32)CC1)c1cccc(C(F)(F)F)c1` (centres unmarked) [Example 94, 1-(4-(1-hydroxy-2-(5H-imidazo[5,1-a]isoindol-5-yl)ethyl)piperidin-1-yl)-2-(methyl(3-trifluoromethylphenyl)amino)ethyl-1-one] are 84% and 98%. In the case of `CN(CC(=O)N1CCC(C(O)CC2c3ccccc3-c3cncn32)CC1)c1ccc([N+](=O)[O-])cc1` (centres unmarked) [Example 105, 1-(4-(1-hydroxy-2-(5H-imidazo[5,1-a]isoindol-5-yl)ethyl)piperidin-1-yl)-2-(methyl(4-nitrophenyl)atnino)ethyl-1-one], the inhibition at 0.2 µM in assay [2] was 84%. Moreover, in assay [1], the inhibition at 1 µM stood at 91%. In the case of `O=C(COC1CCCCC1)N1CCC(C(O)CC2c3ccccc3-c3cncn32)CC1` (centres unmarked) [Example 50, 2-(cyclohexyloxy)-1-(4-(1-hydroxy-2-(5H-imidazo[5,1-a]isoindol-5-yl)ethyl)piperidin-1-yl)ethyl-1-one], the inhibition at 0.2 µM in assay [2] came to 66%. For the same compound, in assay [1], the inhibition at 1 µM is 69%. `COc1cccc(N(C)CC(=O)N2CCC(C(O)CC3c4ccccc4-c4cncn43)CC2)c1` (centres unmarked) [Example 102, 2-((3-methoxyphenyl)(methyl)amino)-1-(4-(1-hydroxy-2-(5H-imidazo[5,1-a]isoindol-5-yl)ethyl)piperidin-1-yl)ethyl-1-one]: the inhibition at 0.2 µM in assay [2] is 85%. Moreover, the inhibition at 1 µM in assay [1] was determined as 95%. For the compound `CCN(CC(=O)N1CCC(C(O)CC2c3ccccc3-c3cncn32)CC1)c1ccccc1` (centres unmarked) [Example 81, 2-(ethyl(phenyl)amino)-1-(4-(1-hydroxy-2-(5H-imidazo[5,1-a]isoindol-5-yl)ethyl)piperidin-1-yl)ethyl-1-one], the inhibition at 0.2 µM in assay [2] was determined as 85%. Also, the inhibition at 1 µM in assay [1] was found to be 94%. In the case of `CN(CC(=O)N1CCC(C(O)CC2c3ccccc3-c3cncn32)CC1)c1ccc(C(F)(F)F)cc1` (centres unmarked) [Example 89, 1-(4-(1-hydroxy-2-(5H-imidazo[5,1-a]isoindol-5-yl)ethyl)piperidin-1-yl)-2-(methyl(4-trifluoromethylphenyl)amino)ethyl-1-one], the inhibition at 0.2 µM in assay [2] worked out at 68%. The inhibition at 1 µM in assay [1] worked out at 85%. For the compound `CN(CC(=O)N1CCC(C(O)CC2c3ccccc3-c3cncn32)CC1)c1ccc(F)c(Cl)c1` (centres unmarked) [Example 68, 2-((3-chloro-4-fluorophenyl)(methyl)amino)-1-(4-(1-hydroxy-2-(5H-imidazo[5,1-a]isoindol-5-yl)ethyl)piperidin-1-yl)ethyl-1-one], in assay [2], the inhibition at 0.2 µM was found to be 87%. In assay [1], the inhibition at 1 µM worked out at 98%.

Take `CN(CC(=O)N1CCC(C(O)CC2c3ccccc3-c3cncn32)CC1)c1ccccn1` (centres unmarked) [Example 109, 1-(4-(1-hydroxy-2-(5H-imidazo[5,1-a]isoindol-5-yl)ethyl)piperidin-1-yl)-2-(methyl(pyridin-2-yl)amino)ethyl-1-one]: the inhibition at 1 µM in assay [1] came out at 68%. With `O=C(COc1ccc(F)c(Cl)c1)N1CCC(C(O)CC2c3ccccc3-c3cncn32)CC1` (centres unmarked) [Example 39, 2-(3-chloro-4-fluorophenoxy)-1-(4-(1-hydroxy-2-(5H-imidazo[5,1-a]isoindol-5-yl)ethyl)piperidin-1-yl)ethyl-1-one], the inhibition at 0.2 µM in assay [2] is 90%. Also, in assay [1], the inhibition at 1 µM came to 98%. Take `O=C(COc1ncnc2[nH]cnc12)N1CCC(C(O)CC2c3ccccc3-c3cncn32)CC1` (centres unmarked) [Example 33, 2-((7H-purin-6-yl)oxy)-1-(4-(1-hydroxy-2-(5H-imidazo[5,1-a]isoindol-5-yl)ethyl)piperidin-1-yl)ethyl-1-one]: the inhibition at 0.2 µM in assay [2] stood at 70%.

The IC50 is the point on the concentration scale where inhibition reaches its midpoint. As a reminder, the EC50 is the concentration at which the effect is half-maximal.

Source of the values: patent US10604529B2, “Fused imidazole compound having indoleamine 2,3-dioxygenase inhibitory activity” (SHENZHEN CHIPSCREEN BIOSCIENCES CO., LTD., priority 2016, dated 2020).
